Measurements taken from US20100204182A1, “ECTONUCLEOTIDASE INHIBITORS” (RHEINISCHE FRIEDRICH-WILHELMS-UNIVERSITAT BONN, priority 2006, published 2010).
Like-named read-outs stand apart in the source and are kept apart here.

Key:
[1] = molecular target: T1, human NTPDase1 (Homo sapiens, UniProt P49961); test: NTPDase inhibition assay by capillary electrophoresis (CE), NTPDase1; type: biochemical; conditions: ATP 320 μM; for inhibition at 1000 µM: 1 mM compound; for Ki: CE method, Km 17 μM, read-out: NTPDase1 Ki [μM] ± SEM
T1 sequence (P49961 1-510): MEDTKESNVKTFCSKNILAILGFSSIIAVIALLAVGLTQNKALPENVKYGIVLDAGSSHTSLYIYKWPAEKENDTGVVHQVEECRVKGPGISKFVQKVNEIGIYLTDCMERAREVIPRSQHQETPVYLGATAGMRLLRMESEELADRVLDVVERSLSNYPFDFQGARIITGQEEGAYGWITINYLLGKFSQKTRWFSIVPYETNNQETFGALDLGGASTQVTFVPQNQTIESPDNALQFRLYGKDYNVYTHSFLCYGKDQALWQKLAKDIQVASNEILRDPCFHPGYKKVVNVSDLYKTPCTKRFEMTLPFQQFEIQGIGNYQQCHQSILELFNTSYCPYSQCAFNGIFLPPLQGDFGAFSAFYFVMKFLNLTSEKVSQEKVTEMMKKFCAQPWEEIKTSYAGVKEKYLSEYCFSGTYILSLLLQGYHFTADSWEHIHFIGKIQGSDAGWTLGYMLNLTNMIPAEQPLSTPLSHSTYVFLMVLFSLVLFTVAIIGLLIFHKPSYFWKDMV
Method: (§1) The applied enzyme inhibition assay has been described (Iqbal J, Vollmayer P, Braun N, Zimmermann H, Müller C E. A capillary electrophoresis method for the characterization of ecto-nucleoside triphosphate diphosphohydrolases (NTPDases) and the analysis of inhibitors by in-capillary enzymatic microreaction. Purinergic Signalling 2005, 1, 349-358).
(§2) A. CE instrumentation: All experiments were carried out using a P/ACE MDQ capillary electrophoresis system (Beckman Instruments, Fullerton, Calif., USA) equipped with a UV detection system coupled with a diode-array detector (DAD). Data collection and peak area analysis were performed by the P/ACE MDQ software 32 KARAT obtained from Beckman Coulter. The capillary temperature was kept constant at 25° C. The temperature of the sample storing unit was also adjusted to 25° C. The electrophoretic separations were carried out using an eCAP polyacrylamide-coated fused-silica capillary [(30 cm (20 cm effective length)×50 μm internal diameter (I.D.)×360 μm outside diameter (O.D.), obtained from CS-Chromatographie (Langerwehe, Germany)]. The separation was performed using an applied current of −60 μA and a data acquisition rate of 8 Hz. Analytes were detected using direct UV absorbance at 210 nm. The capillary was conditioned by rinsing with water for 2 min and subsequently with buffer (phosphate 50 mM, pH 6.5) for 1 min. Sample injections were made at the cathodic side of the capillary.
(§3) B. NTPDase inhibition assay by capillary electrophoresis: Enzyme inhibition assays were carried out at 37° C. in a final volume of 100 μl. The reaction mixture contained 320 μM of ATP (substrate) in reaction buffer. The reaction buffer contained 140 mM NaCl, 5 mM KCl, 1 mM MgCl2, 2 mM CaCl2, and 10 mM Hepes, pH 7.4.
(§4) Different concentrations of inhibitors dissolved in DMSO or water (10 μl) were added and the reaction was initiated by the addition of 10 μl of the appropriately diluted recombinant or native human or rat NTPDase enzyme. […] The mixture (final volume 100 μl) was incubated for 15 min and terminated by heating at 99° C. for 4 min. Aliquots of the reaction mixture (50 μl) were then transferred to mini-CE vials and injected into the CE instrument under the conditions described above. 20 μM of UMP was used as internal standard. Inhibition of NTPDase was tested over a range of 6 to 8 concentrations of test compound spanning 3 orders of magnitude to determine K1 values. Each analysis was repeated two times (in triplicates) in two separate experiments. The Cheng-Prusoff equation was used to calculate the K1 values from the IC50 values, determined by the non-linear curve fitting program PRISM® 3.0 (GraphPad, San Diego, Calif., USA). In table 1K, values of selected compounds as inhibitors of human NTPDases are given.

[2] = molecular target: rP2Y6 (Rattus norvegicus, UniProt Q63371); test: Inhibition of UDP binding at rP2Y6; conditions: read-out: rP2Y6 % inhibition of UDP binding at 100 μM, n = 3, mean ± SEM
Sequence of rP2Y6 (Q63371 whole entry): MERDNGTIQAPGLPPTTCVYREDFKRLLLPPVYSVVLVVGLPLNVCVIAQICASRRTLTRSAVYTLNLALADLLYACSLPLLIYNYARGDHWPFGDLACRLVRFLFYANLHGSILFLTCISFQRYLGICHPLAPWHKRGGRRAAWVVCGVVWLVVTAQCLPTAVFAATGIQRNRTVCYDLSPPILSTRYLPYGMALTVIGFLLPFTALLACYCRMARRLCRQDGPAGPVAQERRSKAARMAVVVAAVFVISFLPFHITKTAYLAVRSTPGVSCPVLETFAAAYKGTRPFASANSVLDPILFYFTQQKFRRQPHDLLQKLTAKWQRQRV

[3] = molecular target: hP2Y12 (Homo sapiens, UniProt Q9H244); test: Inhibition of [3H]PSB-0413 binding at hP2Y12; conditions: mean ± SEM, read-out: hP2Y12 % Inhibition of [^3H]PSB-0413 Binding at 10 μM, n = 3
Sequence of hP2Y12 (Q9H244 whole entry): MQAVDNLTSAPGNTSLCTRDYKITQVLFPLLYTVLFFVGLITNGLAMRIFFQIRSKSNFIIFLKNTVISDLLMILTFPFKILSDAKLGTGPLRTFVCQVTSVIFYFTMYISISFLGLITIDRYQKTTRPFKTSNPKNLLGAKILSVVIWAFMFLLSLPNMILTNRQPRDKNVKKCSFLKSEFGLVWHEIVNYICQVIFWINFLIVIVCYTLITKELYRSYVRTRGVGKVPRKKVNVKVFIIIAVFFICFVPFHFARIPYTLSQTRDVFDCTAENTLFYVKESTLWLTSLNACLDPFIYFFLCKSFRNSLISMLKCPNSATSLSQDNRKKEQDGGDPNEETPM
Method: In table 2 inhibition data of selected examples at human P2Y receptor subtypes were collected. It can be seen that no compound was identified that inhibited P2Y receptors at high concentrations of 100 μM and 10 μM, respectively.

[4] = molecular target: T2, human NTPDase2 (Homo sapiens, UniProt Q9Y5L3); test: NTPDase inhibition assay by capillary electrophoresis (CE), NTPDase2; type: biochemical; conditions: human NTPDase2; CE method; ATP 320 μM; Km 70 μM; read-out: NTPDase2 Ki [μM] ± SEM
T2 sequence (Q9Y5L3 1-495): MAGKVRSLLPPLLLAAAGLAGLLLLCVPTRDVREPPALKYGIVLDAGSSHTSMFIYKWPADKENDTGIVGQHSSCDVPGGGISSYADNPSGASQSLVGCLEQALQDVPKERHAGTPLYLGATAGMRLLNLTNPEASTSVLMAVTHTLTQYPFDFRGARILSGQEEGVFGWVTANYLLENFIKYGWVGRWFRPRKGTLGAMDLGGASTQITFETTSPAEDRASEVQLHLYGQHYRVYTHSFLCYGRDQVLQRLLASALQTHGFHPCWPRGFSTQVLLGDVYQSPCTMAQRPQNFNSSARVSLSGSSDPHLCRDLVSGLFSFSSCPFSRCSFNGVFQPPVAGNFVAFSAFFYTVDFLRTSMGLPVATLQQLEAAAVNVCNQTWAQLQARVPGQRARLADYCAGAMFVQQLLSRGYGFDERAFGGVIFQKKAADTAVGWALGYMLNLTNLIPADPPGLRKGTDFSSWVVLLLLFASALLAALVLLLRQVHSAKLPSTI

[5] = molecular target: T3, human NTPDase8 (Homo sapiens, UniProt Q5MY95); test: NTPDase inhibition assay by capillary electrophoresis (CE), NTPDase8; type: biochemical; conditions: for inhibition at 1000 µM: 1 mM compound; for Ki: read-out: NTPDase8 Ki [μM] ± SEM
T3 sequence (Q5MY95 1-495): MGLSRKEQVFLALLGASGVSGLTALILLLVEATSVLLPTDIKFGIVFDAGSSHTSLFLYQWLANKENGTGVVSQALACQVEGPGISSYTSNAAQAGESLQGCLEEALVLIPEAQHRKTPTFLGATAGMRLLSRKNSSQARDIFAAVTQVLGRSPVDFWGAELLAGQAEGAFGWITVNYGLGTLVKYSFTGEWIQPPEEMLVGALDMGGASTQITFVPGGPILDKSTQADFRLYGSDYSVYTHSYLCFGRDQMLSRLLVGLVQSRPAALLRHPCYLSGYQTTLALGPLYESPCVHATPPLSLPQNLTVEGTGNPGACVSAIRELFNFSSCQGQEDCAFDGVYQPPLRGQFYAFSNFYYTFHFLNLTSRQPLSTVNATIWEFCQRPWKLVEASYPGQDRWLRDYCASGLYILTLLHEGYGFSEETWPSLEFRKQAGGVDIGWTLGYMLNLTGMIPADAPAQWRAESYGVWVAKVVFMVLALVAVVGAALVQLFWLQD
Method: as §1, §2, §3, §4

[6] = molecular target: T4, human NTPDase3 (Homo sapiens, UniProt O75355); test: NTPDase inhibition assay by capillary electrophoresis (CE), NTPDase3; type: biochemical; conditions: ATP 320 μM; for inhibition at 1000 µM: 1 mM compound; for Ki: CE method, Km 75 μM, read-out: NTPDase3 Ki [μM] ± SEM
T4 sequence (O75355 1-529): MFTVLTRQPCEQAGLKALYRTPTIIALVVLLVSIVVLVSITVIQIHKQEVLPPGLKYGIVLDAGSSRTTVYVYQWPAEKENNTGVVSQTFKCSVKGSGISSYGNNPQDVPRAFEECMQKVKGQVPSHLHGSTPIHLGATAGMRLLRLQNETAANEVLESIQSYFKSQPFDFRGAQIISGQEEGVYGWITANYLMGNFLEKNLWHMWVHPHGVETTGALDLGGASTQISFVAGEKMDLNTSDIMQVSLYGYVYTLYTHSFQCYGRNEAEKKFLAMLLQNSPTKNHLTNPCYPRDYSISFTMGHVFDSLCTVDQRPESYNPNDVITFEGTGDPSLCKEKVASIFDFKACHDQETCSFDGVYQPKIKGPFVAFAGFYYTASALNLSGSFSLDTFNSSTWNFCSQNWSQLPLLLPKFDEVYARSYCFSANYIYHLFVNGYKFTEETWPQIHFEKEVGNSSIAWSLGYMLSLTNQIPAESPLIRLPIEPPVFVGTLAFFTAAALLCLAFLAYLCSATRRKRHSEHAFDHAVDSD
Method: as §1, §2, §3, §4

With `CCOP(=O)(CCNC(=O)CNC(=O)[C@H]1O[C@@H](n2ccc(=O)[nH]c2=O)C(O)C1O)OCC` (stereo in doubt) [Compound 8, 2-[2-((2S,3R,4S,5R)-5-(2,4-Dioxo-3,4-dihydropyrimidin-1(2H)-yl)-3,4-dihydroxy-tetrahydrofurane-2-carboxamido)ethaneamido]ethylphosphonic acid diethylester] the inhibition at 1000 µM [1] was 0%, the Ki [1] was greater than 50 µM and the inhibition at 100 µM [2] was 9 ± 13%. The inhibition at 10 µM [3] was 2 ± 3%, the Ki [4] was 116 ± 24 µM and the inhibition at 1000 µM ([5]; human NTPDase8, ATP 320 μM) was 0%. It also gave a Ki [5] greater than 100 µM, an inhibition at 1000 µM [6] of 22% and a Ki [6] greater than 200 µM.
In the case of `CCOP(=O)(CNC(=O)CCNC(=O)[C@H]1O[C@@H](n2ccc(=O)[nH]c2=O)[C@H](O)[C@@H]1O)OCC` [Compound 6, 3-[(2S,3R,4S,5R)-5-(2,4-Dioxo-3,4-dihydropyrimidin-1(2H)-yl)-3,4-dihydroxy-tetrahydrofurane-2-carboxamido]pronaneamidomethylphosphonic acid diethylester], the inhibition at 1000 µM [1] is reported as 0%, the Ki [1] is reported as greater than 50 µM and the inhibition at 100 µM [2] is reported as -3 ± 2%. For the same compound, the inhibition at 10 µM [3] was 7 ± 5%, the Ki [4] was 167 ± 21 µM and the inhibition at 1000 µM ([5]; human NTPDase8, ATP 320 μM) was 0%. It also gave a Ki [5] greater than 100 µM, an inhibition at 1000 µM [6] of 0% and a Ki [6] greater than 200 µM.
Work on `CCOP(=O)(Cc1ccc(NC(=O)CCCNC(=O)[C@H]2O[C@@H](n3ccc(=O)[nH]c3=O)C(O)C2O)cc1)OCC` (stereo in doubt) [Compound 4, 4-[4-((2S,3R,4S,5R)-5-(2,4-Dioxo-3,4-dihydropyrimidin-1(2H)-yl)-3,4-dihydroxy-tetrahydrofurane-2-carboxamido)butaneamido]benzylphosphonic acid diethylester] yielded a Ki [1] of 182 ± 24.3 µM, an inhibition at 100 µM [2] of -8 ± 11% and an inhibition at 10 µM [3] of 6 ± 4%. It also gave a Ki [4] of 210 ± 25.3 µM, a Ki ([5]; human NTPDase8, CE method, ATP 320 μM, Km 46 μM) of 242 ± 39.3 µM and an inhibition at 1000 µM [6] of 48%. The Ki [6] was greater than 200 µM.
`CCOP(=O)(CNC(=O)CNC(=O)[C@H]1O[C@@H](n2ccc(=O)[nH]c2=O)C(O)C1O)OCC` (stereo in doubt) [Compound 5, 2-[(2S,3R,4S,5R)-5-(2,4-Dioxo-3,4-dihydropyrimidin-1(2H)-yl)-3,4-dihydroxy-tetrahydrofurane-2-carboxamido]ethaneamidomethylphosphonic acid diethylester] showed a Ki [1] of 786 ± 33 µM, an inhibition at 100 µM [2] of 17 ± 16% and an inhibition at 10 µM [3] of 31 ± 1%. For the same compound, the Ki [4] was 71.7 ± 13.5 µM, the inhibition at 1000 µM ([5]; human NTPDase8, ATP 320 μM) was 0% and the Ki [5] was greater than 100 µM. The inhibition at 1000 µM [6] was 0% and the Ki [6] was greater than 200 µM.
For `CCOP(=O)(CNC(=O)CCCNC(=O)[C@H]1O[C@@H](n2ccc(=O)[nH]c2=O)C(O)C1O)OCC` (stereo in doubt) [Compound 7, 4-[(2S,3R,4S,5R)-5-(2,4-Dioxo-3,4-dihydropyrimidin-1(2H)-yl)-3,4-dihydroxy-tetrahydrofurane-2-carboxamido]butaneamidomethylphosphonic acid diethylester], the inhibition at 1000 µM [1] was 45%, the Ki [1] was greater than 50 µM and the inhibition at 100 µM [2] was -3 ± 11%. For the same compound, the inhibition at 10 µM [3] was 2 ± 8%, the Ki [4] was 29.2 ± 2.7 µM and the inhibition at 1000 µM ([5]; human NTPDase8, ATP 320 μM) was 0%. The Ki [5] was greater than 100 µM, the inhibition at 1000 µM [6] was 0% and the Ki [6] was greater than 200 µM.
